The values below come from US9932338B2, “Compounds having muscarinic receptor antagonist and BETA2 adrenergic receptor agonist activity” (CHIESI FARMACEUTICI S.P.A., priority 2015, dated 2018).

A word on the Ki: it is the equilibrium dissociation constant of an inhibitor or competing ligand from its target.

One experiment concerns the target T1, Human M3 receptor (Homo sapiens, UniProt P20309).
T1 construct: purchased Perkin Elmer
Put plainly: M3 receptor radioligand binding assay. Conditions: human M3 receptor membranes, [N-methyl-3H] scopolamine methyl chloride, Ki from IC50 by Cheng and Prusoff. The method, then: Example. M3 Receptor Radioligand Binding Assay
The assay was carried out in 96-well polypropylene plates in a volume of 250 ul. […] The final assay concentration of DMSO was 0.5% (v/v). The plates were sealed and incubated for 2 hours at room temperature on an orbital shaker (slow speed). Membranes were harvested onto 96-well unifilter GF/C filter plates pre-treated with 0.5% polyethyleneimine (v/v), using a filter manifold, washed four times with 200 μl of assay buffer. The plates were dried before addition of 50 μl of microscint-0, sealed then read in a Trilux Microbeta scintillation counter. IC50 values are determined from competition curves using a non-linear curve fitting program. Ki values were calculated from IC50 values by the Cheng and Prusoff equation.

A further experiment has as its target T2, Human β2 adrenoceptor (Homo sapiens, UniProt P07550).
T2 construct: purchased Perkin Elmer
Put plainly: β2 adrenoceptor radioligand binding assay. The settings on record: human β2 adrenoceptor membranes, 125-I cyanopindolol, Ki from IC50 by Cheng and Prusoff. The method, then:
Example. β2 Adrenoceptor Radioligand Binding Assay
Human β2 adrenoceptor membranes (7.5 ug/well) from Perkin Elmer were incubated with 0.3 nM 125-I Cyanopindolol with or without test compounds, or a saturating concentration of s-propranolol (2 μM) for the determination of non-specific binding. The assay was carried out in 96-well polypropylene plates in a volume of 200 ul. The assay buffer used was 25 mM HEPES, 0.5% BSA (w/v), 1 mM EDTA, 0.02% ascorbic acid (v/v), (pH 7.4). The final assay concentration of DMSO was 0.5% (v/v). The plates were sealed and incubated for 1 hour at room temperature on an orbital shaker (slow speed). Membranes were harvested onto 96-well unifilter GF/C filter plates pre-treated with 0.5% polyethyleneimine (v/v), using a filter manifold, washed six times with 200 μl of wash buffer containing 10 mM HEPES and 500 mM NaCl. The plates were dried before addition of 50 μl of microscint-0, sealed then read in a Trilux Microbeta scintillation counter. IC50 values are determined from competition curves using a non-linear curve fitting program. Ki values were calculated from IC50 values by the Cheng and Prusoff equation.

[1] abbreviates: read-out: M3 binding affinity (Ki class).
Setting [2] is: read-out: B2 binding affinity (Ki class).

SMILES strings stand for the structures. Read-outs that look alike come from different tables or passages of the source. Where only a bound is given, the exact number is not on record here.

T1 sequence (P20309 whole entry): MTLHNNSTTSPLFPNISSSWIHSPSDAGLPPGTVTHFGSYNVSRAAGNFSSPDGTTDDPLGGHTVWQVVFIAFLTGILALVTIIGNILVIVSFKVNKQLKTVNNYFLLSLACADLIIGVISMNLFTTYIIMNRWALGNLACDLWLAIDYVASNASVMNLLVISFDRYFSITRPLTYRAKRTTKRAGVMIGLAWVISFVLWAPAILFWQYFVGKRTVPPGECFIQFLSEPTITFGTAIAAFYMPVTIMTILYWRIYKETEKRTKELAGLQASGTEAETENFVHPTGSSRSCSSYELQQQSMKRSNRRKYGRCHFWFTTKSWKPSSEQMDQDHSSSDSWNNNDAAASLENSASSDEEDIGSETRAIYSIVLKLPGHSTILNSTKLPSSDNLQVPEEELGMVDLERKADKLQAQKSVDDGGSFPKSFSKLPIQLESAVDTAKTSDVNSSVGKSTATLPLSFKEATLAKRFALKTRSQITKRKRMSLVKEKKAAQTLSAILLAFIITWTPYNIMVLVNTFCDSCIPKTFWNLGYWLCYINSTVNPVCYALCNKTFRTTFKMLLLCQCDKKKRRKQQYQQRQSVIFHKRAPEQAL
T2 sequence (P07550 whole entry): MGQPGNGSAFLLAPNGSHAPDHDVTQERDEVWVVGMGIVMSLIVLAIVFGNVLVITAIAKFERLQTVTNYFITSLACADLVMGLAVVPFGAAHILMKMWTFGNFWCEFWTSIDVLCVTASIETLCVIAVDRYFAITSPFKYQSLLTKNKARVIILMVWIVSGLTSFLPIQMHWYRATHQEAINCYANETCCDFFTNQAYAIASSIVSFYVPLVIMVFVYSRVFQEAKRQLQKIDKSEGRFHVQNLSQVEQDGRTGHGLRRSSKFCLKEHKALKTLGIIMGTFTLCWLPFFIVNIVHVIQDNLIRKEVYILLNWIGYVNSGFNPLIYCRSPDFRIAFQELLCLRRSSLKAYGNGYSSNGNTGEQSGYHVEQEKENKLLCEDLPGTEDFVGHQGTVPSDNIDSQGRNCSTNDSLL

Take `O=C(NC1(C(=O)O[C@H]2CN3CCC2CC3)CCc2ccccc21)c1cccc(COCCCCNC[C@H](O)c2ccc(O)c3[nH]c(=O)ccc23)c1` (stereo partly drawn) [Compound 12, (R)-quinuclidin-3-yl 1-(3-((4-(((R)-2-hydroxy-2-(8-hydroxy-2-oxo-1,2-dihydroquinolin-5-yl)ethyl)amino)butoxy)methyl)benzamido)-2,3-dihydro-1H-indene-1-carboxylate]: the Ki was 1 to 10 nM on Human M3 receptor (setting [1]) and over 10 nM on Human β2 adrenoceptor (setting [2]).
`O=C(NCCCCNC[C@H](O)c1ccc(O)c2[nH]c(=O)ccc12)c1ccc(CNC2(C(=O)OCC3CCN(Cc4ccccc4)CC3)CCc3ccccc32)s1` (single isomer, unassigned; stereoisomer 1) [Compound 22]: the inhibition constant (Ki) is under 1 nM on Human M3 receptor (setting [1]) and 1 to 10 nM on Human β2 adrenoceptor (setting [2]).
In the same order, the values of `O=C(NC1(C(=O)O[C@H]2CN3CCC2CC3)CCc2ccccc21)c1ccc(OCc2ccc(CNC[C@H](O)c3ccc(O)c4[nH]c(=O)ccc34)cc2)cc1` (stereo partly drawn) [Compound 19, (R)-quinuclidin-3-yl 1-(4-((4-((((R)-2-hydroxy-2-(8-hydroxy-2-oxo-1,2-dihydroquinolin-5-yl)ethyl)amino)methyl)benzyl)oxy)benzamido)-2,3-dihydro-1H-indene-1-carboxylate] are 1 to 10 nM and over 10 nM.
The like results for `O=C(NCCCCNC[C@H](O)c1ccc(O)c2[nH]c(=O)ccc12)c1ccc(CNC2(C(=O)OCC3CCN(Cc4cccc(O)c4)CC3)CCc3ccccc32)s1` (stereo partly drawn) [Compound 15, (1-(3-hydroxybenzyl)piperidin-4-yl)methyl 1-(((5-((4-(((R)-2-hydroxy-2-(8-hydroxy-2-oxo-1,2-dihydroquinolin-5-yl)ethyl)amino)butyl)carbamoyl)thiophen-2-yl)methyl)amino)-2,3-dihydro-1H-indene-1-carboxylate] were, in that order, under 1 nM and 1 to 10 nM.
In the same order, the values of `O=C(NCCCCNC[C@H](O)c1ccc(O)c2[nH]c(=O)ccc12)c1ccc(CNC2(C(=O)O[C@@H]3CCN(Cc4ccccc4)C3)CCc3ccccc32)s1` (single isomer, unassigned; stereoisomer 2) [Compound 28] are under 1 nM and 1 to 10 nM.
As to `O=C(NCCCCNC[C@H](O)c1ccc(O)c2[nH]c(=O)ccc12)c1cccc(CNC2(C(=O)O[C@H]3CN4CCC3CC4)CCc3ccccc32)c1` (stereo partly drawn) [Compound 1, (R)-quinuclidin-3-yl 1-((3-((4-(((R)-2-hydroxy-2-(8-hydroxy-2-oxo-1,2-dihydroquinolin-5-yl)ethyl)amino)butyl)carbamoyl)benzyl)amino)-2,3-dihydro-1H-indene-1-carboxylate], the Ki at Human M3 receptor (setting [1]) and on Human β2 adrenoceptor (setting [2]) was under 1 nM each time.
Regarding `O=C(NCCCCNC[C@H](O)c1ccc(O)c2[nH]c(=O)ccc12)c1ccc(CNC2(C(=O)O[C@H]3CN4CCC3CC4)Cc3ccccc3C2)s1` [Compound 14, (R)-quinuclidin-3-yl 2-(((5-((4-(((R)-2-hydroxy-2-(8-hydroxy-2-oxo-1,2-dihydroquinolin-5-yl)ethyl)amino)butyl)carbamoyl)thiophen-2-yl)methyl)amino)-2,3-dihydro-1H-indene-2-carboxylate], the Ki on Human M3 receptor (setting [1]) was under 1 nM; at Human β2 adrenoceptor (setting [2]) it was 1 to 10 nM.
The like results for `O=C(NC1(C(=O)OCC2CCN(Cc3cccc(O)c3)CC2)CCc2ccccc21)c1cccc(OCCCCCCNC[C@H](O)c2ccc(O)c3[nH]c(=O)ccc23)c1` (stereo partly drawn) [Compound 11, (1-(3-hydroxybenzyl)piperidin-4-yl)methyl 1-(3-((6-(((R)-2-hydroxy-2-(8-hydroxy-2-oxo-1,2-dihydroquinolin-5-yl)ethyl)amino)hexyl)oxy)benzamido)-2,3-dihydro-1H-indene-1-carboxylate] were, in that order, 1 to 10 nM and over 10 nM.
In the same order, the values of `O=C(NCCCCNC[C@H](O)c1ccc(O)c2[nH]c(=O)ccc12)c1ccc(CNC2(C(=O)OC3CCN(Cc4ccccc4)CC3)CCc3ccccc32)s1` (single isomer, unassigned; stereoisomer 2) [Compound 27] are under 1 nM and over 10 nM.
Take `O=C(NCCCCNC[C@H](O)c1ccc(O)c2[nH]c(=O)ccc12)c1ccc(CNC2(C(=O)OCC3CCN(Cc4cccs4)CC3)CCc3ccccc32)s1` (stereo partly drawn) [Compound 17, (1-(thiophen-2-ylmethyl)piperidin-4-yl)methyl 1-(((5-((4-(((R)-2-hydroxy-2-(8-hydroxy-2-oxo-1,2-dihydroquinolin-5-yl)ethyl)amino)butyl)carbamoyl)thiophen-2-yl)methyl)amino)-2,3-dihydro-1H-indene-1-carboxylate]: the inhibition constant (Ki) at Human M3 receptor (setting [1]) is under 1 nM; at Human β2 adrenoceptor (setting [2]) it was over 10 nM.
The like results for `O=C(NCCCCNC[C@H](O)c1ccc(O)c2[nH]c(=O)ccc12)c1ccc(CNC2(C(=O)O[C@H]3CN4CCC3CC4)CCc3ccccc32)s1` (stereo partly drawn) [Compound 4, (R)-quinuclidin-3-yl 1-(((5-((4-(((R)-2-hydroxy-2-(8-hydroxy-2-oxo-1,2-dihydroquinolin-5-yl)ethyl)amino)butyl)carbamoyl)thiophen-2-yl)methyl)amino)-2,3-dihydro-1H-indene-1-carboxylate] were, in that order, under 1 nM and under 1 nM.
In the same order, the values of `CC(C)N1CCC(COC(=O)C2(NC(=O)c3cccc(OCCCCCCNC[C@H](O)c4ccc(O)c5[nH]c(=O)ccc45)c3)CCc3ccccc32)CC1` (stereo partly drawn) [Compound 7, (1-isopropylpiperidin-4-yl)methyl 1-(3-((6-(((R)-2-hydroxy-2-(8-hydroxy-2-oxo-1,2-dihydroquinolin-5-yl)ethyl)amino)hexyl)oxy)benzamido)-2,3-dihydro-1H-indene-1-carboxylate] are under 1 nM and over 10 nM.
The like results for `O=C(NC1(C(=O)O[C@H]2CN3CCC2CC3)Cc2ccccc2C1)c1cccc(OCCCCCNC[C@H](O)c2ccc(O)c3[nH]c(=O)ccc23)c1` [Compound 13, (R)-quinuclidin-3-yl 2-(3-((5-(((R)-2-hydroxy-2-(8-hydroxy-2-oxo-1,2-dihydroquinolin-5-yl)ethyl)amino)pentyl)oxy)benzamido)-2,3-dihydro-1H-indene-2-carboxylate] were, in that order, under 1 nM and 1 to 10 nM.
Turning to `O=C(Cc1ccc(CC(=O)NC2(C(=O)O[C@H]3CN4CCC3CC4)CCc3ccccc32)cc1)Nc1ccc(CNC[C@H](O)c2ccc(O)c3[nH]c(=O)ccc23)cc1` (stereo partly drawn) [Compound 18, (R)-quinuclidin-3-yl 1-(2-(4-(2-((4-((((R)-2-hydroxy-2-(8-hydroxy-2-oxo-1,2-dihydroquinolin-5-yl)ethyl)amino)methyl)phenyl)amino)-2-oxoethyl)phenyl)acetamido)-2,3-dihydro-1H-indene-1-carboxylate], the results for the Ki at Human M3 receptor (setting [1]) and on Human β2 adrenoceptor (setting [2]) were 1 to 10 nM and over 10 nM, respectively.
Regarding `O=C(NC1(C(=O)O[C@H]2CN3CCC2CC3)CCc2ccccc21)c1cccc(OCCCCCNC[C@H](O)c2ccc(O)c3[nH]c(=O)ccc23)c1` (stereo partly drawn) [Compound 2, (R)-quinuclidin-3-yl 1-(3-((5-(((R)-2-hydroxy-2-(8-hydroxy-2-oxo-1,2-dihydroquinolin-5-yl)ethyl)amino)pentyl)oxy)benzamido)-2,3-dihydro-1H-indene-1-carboxylate], the inhibition constant (Ki) at Human M3 receptor (M3 binding affinity (Ki class)) and at Human β2 adrenoceptor (B2 binding affinity (Ki class)) was under 1 nM throughout.
Regarding `O=C(NCCCCNC[C@H](O)c1ccc(O)c2[nH]c(=O)ccc12)c1ccc(CNC2(C(=O)OCC3CCN(Cc4ccccc4)CC3)CCc3ccccc32)s1` (single isomer, unassigned; stereoisomer 2) [Compound 23], the inhibitory constant (Ki) at Human M3 receptor (setting [1]) was under 1 nM; at Human β2 adrenoceptor (setting [2]), 1 to 10 nM.
For `Cc1cccc2c1CCC2(NC(=O)c1cccc(OCCCCCNC[C@H](O)c2ccc(O)c3[nH]c(=O)ccc23)c1)C(=O)O[C@H]1CN2CCC1CC2` (single isomer, unassigned; diastereoisomer 1) [Compound 5A], the inhibition constant (Ki) at Human M3 receptor (setting [1]) and on Human β2 adrenoceptor (setting [2]) was 1 to 10 nM throughout.
For the compound `O=C(O[C@H]1CN2CCC1CC2)C1(NCc2cccc(OCc3cccc(OCCCCNC[C@H](O)c4ccc(O)c5[nH]c(=O)ccc45)c3)c2)CCc2ccccc21` (stereo partly drawn) [Compound 21, (R)-quinuclidin-3-yl 1-((3-((3-(4-(((R)-2-hydroxy-2-(8-hydroxy-2-oxo-1,2-dihydroquinolin-5-yl)ethyl)amino)butoxy)benzyl)oxy)benzyl)amino)-2,3-dihydro-1H-indene-1-carboxylate], the inhibition constant Ki on Human M3 receptor (setting [1]) and at Human β2 adrenoceptor (setting [2]) was under 1 nM throughout.
